Measured values taken from US20210308211A1, “METHOD OF TREATING VIRAL INFECTIONS” (priority 2020, published 2021).
“And” between values parts separate entries of the source, which are not always exact repeats. Equal entries are not always repeated. “Also recorded” adds a separate entry of the source. Non-standard residues stand in square brackets, D forms with d. Residues, ends and D or L forms follow the SMILES beside them. pS = N[C@@H](COP(=O)(O)O)C(=O)O

What was measured:
[1] = tested on: MRL/lpr B cells; conditions: cited from earlier work
[2] = tested on: Balb/c mice; experiment: 15-day ovalbumin-induced airway hypereosinophilia model, BAL cell counts; assay type: in vivo, mouse; conditions: for B cells / Eosinophils / Macrophages / Neutrophils / T cells / Total cells: per mouse
Experimental: The anti-inflammatory effect of the P140 phosphopeptide was evaluated when administered locally (intranasally) or systemically (intravenously) in a 15-day model of hypereosinophilic airway inflammation in mice.
The P140 phosphopeptide was solubilized in sterile water (Braun) and 10× concentrate sterile saline was added to adjust osmolarity to 300 mosm. Osmolarity was controlled with a micro osmometer (Löser, type 15) and validated (302 mosm).
The P140 phosphopeptide was used in vivo at the dose of 4 mg/kg by intranasal (i.n.) and intravenous (i.v.) routes. Control animals received equivalent volumes (1 ml/kg for i.n. and 2 ml/kg for i.v.) of saline (Table 6).
Nine-week-old male Balb/c mice were sensitized by intraperitoneal (i.p.) injections of a mixture containing 50 μg OVA (Sigma-Aldrich) and 2 mg alum (Sigma-Aldrich) in 0.1 ml saline. Mice were challenged by i.n. administration of 25 μl of OVA on day 5, then 25 μl of OVA and/or saline on day 12, 13 and 14. Mice were treated by i.v. injection (2 ml/kg) or i.n. administration (1 ml/kg) of P140 or solvent on day 9 (See FIG. 9).
BAL was performed twenty-four hours after […] challenge as described (Daubeuf, F. and Frossard, N. 2012. Performing Bronchoalveolar Lavage in the Mouse. Curr Protoc Mouse Biol 2:167-175). Mice were anaesthetized IP (Ketamine 150 mg/kg—Xylasine 10 mg/kg). Blood was collected from the heart, centrifuged at 10,000 g for 2 min and serum stored at −20° C. After semi-excision of the trachea, a plastic cannula was inserted, and airspace washed with 0.5 ml of 0.9% NaCl injected with a 1 ml syringe. This procedure was performed 10 times. The initial concentrated supernatant of the 2 first lavages (volume=2×0.5 ml administered, ˜0.5 ml recovered) was collected for cytokine measurements. The remaining BAL fluid was centrifuged (300 g for 5 min, 4° C.), and cell pellets pooled. The cell pellet was suspended in 500 μl of 0.9% NaCl and used for total cell counts evaluated on a Muse® Cell Analyser. Differential cell counts were assessed by flow cytometry (LSRII® cytometer, BD Bioscience). BAL cells were added with FCblock (0.5 μl, 553142, BD Bioscience) in a black microplate, incubated for 20 min at room temperature. Then, marker antibodies were added: CD11c-FITC (557400, BD bioscience), Gr-1-Pe-eFluor610 (61-5931-82, eBioscience), CD11b-APC-Cy7 (557657, BD bioscience), CD45-AlexaFluor700 (103128, BioLegend), CD3-BV605 (564009, BD bioscience), CD19-PE-Cy7 (552854, BD bioscience). Antibodies were incubated with BAL cells for 30 min at room temperature before DAPI (5 μl, BD bioscience) addition, and flow cytometry was performed immediately.
Data are presented as means±SEM. Differences between groups were tested for statistical significance using one-way ANOVA followed by Tukey's post-test. For statistical analysis, control groups 1, 2 and 3 were pooled.

[3] = tested on: peripheral T cells from lupus patients; conditions: cited from earlier work
[4] = tested on: Lewis rats; experiment: Chronic-EAN rat model of CIDP; conditions: 100 μg/rat i.p.
Experimental: Male Lewis rats, 7-8 weeks old, weighing 250-270 g, purchased from Charles River (Domaine des Oncins, L′Arbresle, France) were used.
Body weight and clinical scores are assessed daily until 60 days post-immunization (dpi). Severity of paresis is graded as follows: 0=no illness; 1=flaccid tail; 2=moderate paraparesis; 3=severe paraparesis; 4=tetraparesis; 5=death.
100 μg/rat P140 peptide in 500 μL water/saline (1:10) were intraperitoneally injected at 5, 7, 9, 13 dpi and 3 times per week from 22 dpi until the end of the study.

[5] = tested on: MRL/lpr mice; experiment: Survival analysis in MRL/lpr lupus mice; assay type: in vivo, mouse; conditions: female MRL/lpr mice, intravenous, 20 mice per group; NaCl control 25 weeks
Experimental: It has been determined that this mouse strain carries a mutation in the fas gene. Also, the MRL/lpr is a useful model to study behavioural and cognitive deficits found in autoimmune diseases and the efficacy of immunosuppressive agents [Monneaux et al., 2003, Eur. J. Immunol. 33, 287-296].
Five-week-old female MRL/lpr mice received P140 or peptide P140(MO) intravenously as described (Monneaux et al., 2003, Eur. J. Immunol. 33, 287-296). All experimental protocols were carried out with the approval of the local Institutional Animal Care and Use Committee (CREMEAS). As control, mice were injected with NaCl.
Twenty mice were used for each peptide or NaCl.
Statistical tests were performed using GraphPad Prism version 5.0. The two-way ANOVA test was used to analyze statistical significance of proteinuria differences between control and peptide-treated groups of mice. Survival of control and P140 analogue-treated female MRL/lpr mice was analyzed by the Kaplan-Meier method, and the significance of differences was determined by the log-rank test. For the other variables, statistical significance was assessed using the Student's t-test. p values less than 0.05 were considered significant.

[6] = BAL, P140-IN (i.n. 4 mg/kg, day 9), OVA challenge
[7] = BAL, P140-IN (i.n. 4 mg/kg, day 9), saline challenge
[8] = BAL, P140-IV (i.v. 4 mg/kg, day 9), OVA challenge
[9] = BAL, P140-IV (i.v. 4 mg/kg, day 9), saline challenge

Structure (SMILES): CC[C@H](C)[C@H](NC(=O)[C@H](Cc1ccccc1)NC(=O)[C@H](C)NC(=O)[C@H](Cc1ccc(O)cc1)NC(=O)CNC(=O)[C@H](CCCNC(=N)N)NC(=O)[C@@H]1CCCN1C(=O)[C@H](CCCCN)NC(=O)CNC(=O)[C@H](COP(=O)(O)O)NC(=O)[C@H](CCCNC(=N)N)NC(=O)[C@H](CCCCN)NC(=O)[C@H](CO)NC(=O)[C@H](Cc1ccc(O)cc1)NC(=O)[C@@H](NC(=O)[C@H](CCSC)NC(=O)[C@H](Cc1c[nH]cn1)NC(=O)[C@@H](NC(=O)[C@@H](N)CCCNC(=N)N)[C@@H](C)CC)C(C)C)C(=O)N[C@@H](CCC(=O)O)C(=O)N[C@@H](Cc1ccc(O)cc1)C(=O)O [Compound P140] (H-RIHMVYSKR[pS]GKPRGYAFIEY-OH; N-terminus and C-terminus assumed)
- Autophagy markers SQSTM1 and MAP1LC3 ([1]; MRL/lpr B cells after P140 treatment (Page et al., 2011)): accumulation
- Expression of HSPA8 and LAMP-2A ([1]; MRL/lpr B cells after treating mice (Page et al., 2011; Macri et al., in press)): down-regulated
- B cells [2, 6]: 25606 and 32251 and 26562 and 23383 and 33156 and 13236
- Eosinophils [2, 6]: 490306 and 497948 and 737671 and 839841 and 792249 and 615171
- Macrophages [2, 6]: 271110 and 322340 and 247391 and 538954 and 436210 and 286509
- Neutrophils [2, 6]: 57542 and 60787 and 62354 and 95173 and 47346 and 65366
- T cells [2, 6]: 44036 and 61800 and 73159 and 118360 and 101951 and 61293
- Total cells [2, 6]: 862995 and 942875 and 1120576 and 1592328 and 1377755 and 1028339
- B cells [2, 7]: 112 and 242
- Eosinophils [2, 7]: 168 and 103
- Macrophages [2, 7]: 388102 and 434029
- Neutrophils [2, 7]: 56 and 61
- T cells [2, 7]: 4135 and 4180
- Total cells [2, 7]: 392461 and 438573
- B cells [2, 8]: 10219 and 15209 and 14027 and 17417 and 11003 and 10922
- Eosinophils [2, 8]: 425928 and 272763 and 473105 and 470027 and 327186 and 429469
- Macrophages [2, 8]: 439265 and 442055 and 244523 and 293070 and 342134 and 379565
- Neutrophils [2, 8]: 42783 and 21442 and 59616 and 76867 and 40275 and 31756
- T cells [2, 8]: 41744 and 43881 and 32677 and 55502 and 28857 and 45030
- Total cells [2, 8]: 949720 and 780142 and 809921 and 895467 and 738452 and 885821
- B cells [2, 9]: 70 and 266
- Eosinophils [2, 9]: 110 and 166
- Macrophages [2, 9]: 335658 and 335200
- Neutrophils [2, 9]: 259 and 133
- T cells [2, 9]: 5311 and 4790
- Total cells [2, 9]: 341738 and 340389
- Number of cells recovered in BAL fluid as compared to vehicle ([2]; control mice challenged with saline, i.n. or i.v.): little effect
- Inflammatory cell recruitment in BAL (in words) ([2]; i.n. route, 4 mg/kg, OVA challenge): little effect; also recorded: without substantial effect
- Neutrophils recruitment, change vs OVA group ([2]; i.v. 4 mg/kg, OVA challenge, BAL, not significant): −38%
- Eosinophil recruitment, change vs OVA group ([2]; i.v. 4 mg/kg, OVA challenge, BAL, p<0.001): −50%
- T cells recruitment, change vs OVA group ([2]; i.v. 4 mg/kg, OVA challenge, BAL, p<0.01): −66%
- B cells recruitment, change vs OVA group ([2]; i.v. 4 mg/kg, OVA challenge, BAL, p<0.05): −42%
- Anti-inflammatory effect (in words) ([2]; i.v. administration 4 mg/kg, OVA challenge): shows anti-inflammatory effect
- Proliferation of peripheral T cells from lupus patients ([3]; ex vivo (Monneaux et al., 2005)): does not induce proliferation
- Secretion of regulatory cytokine IL-10 in cell cultures ([3]; ex vivo, T cells from lupus patients (Monneaux et al., 2005)): high levels
- Chronicity of the disease [4]: seems abolish the chronicity
- Maximal clinical scores ([4]; compared to untreated rats): decreased
- Onset of the disease ([4]; compared to untreated rats): delayed
- Weight loss during the disease course ([4]; compared to untreated rats): less important
- Median survival [5]: 29 weeks
